Here are results for 22 compounds from patent US10980777B2, “Indole derivatives as histone demethylase inhibitors” (Istituto Europeo di Oncologia S.r.l., priority 2017, dated 2021).

Molecules are shown by their SMILES. Where a name gives a salt, the structure may show the parent alone. Read-outs that look alike come from different tables or passages of the source.

One experiment concerns human leukemia NB4 cells. Put plainly: Cell growth, CellTiter-Fluor cell viability assay, NB4. The note with it: NB-4, 48 h incubation, read-out: IC50 against human leukemia NB4 cells. Format: cell-based. An excerpt: (§1) CellTiter-Flor® (Promega) is as a nonlytic, single-reagent-addition fluorescence assay that measures the relative number of living cells in a culture population after experimental manipulation. The CellTiter-Fluor™ Cell Viability Assay measures the conserved and constitutive protease activity within live cells and therefore acts as a marker for cell viability.
(§2) Human leukemia MV4-11 cells, (obtained from the Deutsche Sammlung von Mikroorganismen und Zellkulturen, ACC 102) or NB4 cells, (obtained from the Deutsche Sammlung von Mikroorganismen und Zellkulturen) in exponential growth, were incubated for 48 h with different concentrations of the inhibitors. After 48 h a volume of CellTiter-Fluor® Reagent equal to one fifth of volume of cell culture medium was added. The content was mixed and incubates for at least 90 min at 37° C. degree to obtain a stable signal. The fluorescence was recorded using an excitation wavelength of 360 nm and an emission at 535 nm. The IC50 was calculated using GraphPad Software.

The test system of experiment [1] is Human leukemia MV4-11 cells. Put plainly: Cell growth, CellTiter-Fluor cell viability assay, MV4-11. To be noted: 48 h incubation, read-out: IC50 against human leukemia MV4-11 cells. Type of experiment: cell-based.
Description: as §1, §2

Experiment [2] concerns the target T1, human recombinant KDM1A/CoREST protein (Homo sapiens, UniProt O60341).
T1 construct: made in house; host or cells: E. coli
Put plainly: Assay of enzyme inhibition of KDM1A (LSD1), TR-FRET. Format: biochemical. How it is done: 2.1 Assay of Enzyme Inhibition of KDM1A (LSD1)
The KDM1A inhibiting activity was determined using a TR-FRET assay (time resolved fluorescence resonance energy transfer, Lance® Ultra Demethylase technology (Perkin Elmer, Waltham, Mass., USA)), which comprises a Europium chelate donor dye (TRF0404, Perkin Elmer, Waltham, Mass., USA) together with ULight™ (TR0102, Perkin Elmer, Waltham, Mass., USA), a small molecular weight acceptor dye with a red-shifted fluorescent emission, and a biotinylated 21 amino acids histone H3-derived monomethylated peptide (H3K4me) [Lys(Me1)4]-Histone H3 (1-21)-GGK(biotin), (64355, Anaspec, Fremont, Calif., USA) as substrate. The intensity of the light emission is proportional to the level of biotinylated reaction product. The complex of human recombinant KDM1A/CoREST protein was produced in E. coli as separate proteins and co-purified as previously described.(Forneris, F. et al. Trends Biochem, Sci, 2008, 33, 181-189) (Forneris, F. et al. J. Biol. Chem. 2007, 282, 20070-20074).
Demethylase Assay conditions: 0.25 nM KDM1A/CoREST protein and compound in 100% DMSO were added in a final volume of 48 μL assay buffer (Tris HCl 50 mM pH 8.8, NaCl 50 mM, DTT 1 mM, Tween-20 0.01% (by volume)) to each well of a 96 well half area flat bottom white plate (3693 Costar, Sigma-Aldrich, St. Louis, M, USA).
Demethylase reaction was started by the addition of 50 nM histone H3K4 monomethylated. After 20 min at RT, 300 μM tranylcypromine (P8511-1G, Sigma-Aldrich, St. Louis, Mo. 63103) was added to stop the reaction.
Detection step conditions: 10 μL of the assay mixture was transferred from the original plate into a 384 well white plate (6007290 OptiPlate™, Perkin Elmer, Waltham, Mass., USA) and 10 μL of the detection Mix containing 2 nM Eu-antibody and 10 nM U-Light-Streptavidin in 1× Lance Detection Buffer (TRF0404, TR0102, CR97100, Perkin Elmer, Waltham, Mass., USA). The resulting mixture was incubated in the dark for 1 h at RT. Then, TR-FRET signal was read by a fluorimeter (Infinite® F200, Tecan, Männedorf, Switzerland) (Excitation 320 nm, Emission 665 nm and 620 nm, delay time 50 μs, window time 100 μs).
IC50 determination: The inhibitor concentrations ranged from 0.025 to 500 μM (serial 1:3 dilutions). The IC50 was calculated using GraphPad Software.

Setting [3] is: 0.25 nM KDM1A/CoREST, 50 nM H3K4 monomethylated peptide, 20 min at RT, read-out: IC50, KDM1A (LSD1) enzyme inhibition.

One may read the IC50 as the concentration needed to halve the response being measured. Regarding `Cn1c(C(=O)c2cn(CCOc3ccc(OC[C@@H]4CCNC4)cc3)c3ccccc23)cc2sccc21` (stereo in doubt) [Compound 15, (4-methylthieno[3,2-b]pyrrol-5-yl)-[1-[2-[4-(pyrrolidin-3-ylmethoxy)phenoxy]ethyl]indol-3-yl]methanone hydrochloride], the 50% inhibitory concentration (IC50) with human leukemia NB4 cells is below 10 µM; in experiment [1], below 10 µM; in experiment [2] (setting [3]), below 0.5 µM.

In the case of `Cn1c(C(=O)c2cn(CCOc3cccc(O[C@@H]4CCCNCC4)c3)c3ccccc23)cc2sccc21` (stereo in doubt) [Compound 20, [1-[2-[3-(azepan-4-yloxy)phenoxy]ethyl]indol-3-yl]-(4-methylthieno[3,2-b]pyrrol-5-yl)methanone hydrochloride], the figures for the half-maximal inhibitory concentration (IC50) (in the experiment on human leukemia NB4 cells; in experiment [2] (setting [3])) were below 10 µM and below 0.5 µM, respectively.

Regarding `Cn1c(C(=O)c2cn(CCOc3ccc(O[C@H]4CCCNCC4)cc3)c3ccccc23)cc2sccc21` (stereo in doubt) [Compound 21, [1-[2-[4-(azepan-4-yloxy)phenoxy]ethyl]indol-3-yl]-(4-methylthieno[3,2-b]pyrrol-5-yl)methanone hydrochloride], the values for the half-inhibitory concentration (IC50) (in the experiment on human leukemia NB4 cells; in experiment [2] (setting [3])) were below 10 µM and below 0.5 µM, respectively.

Take `Cn1c(C(=O)c2cn(CCCc3ccc(OC[C@@H]4CCNC4)cc3)c3ccccc23)cc2sccc21` (stereo in doubt) [Compound 22, (4-methylthieno[3,2-b]pyrrol-5-yl)-[1-[3-[4-(pyrrolidin-3-ylmethoxy)phenyl]propyl]indol-3-yl]methanone hydrochloride]: the IC50 was below 10 µM in the experiment with human leukemia NB4 cells and below 0.5 µM in experiment [2] (setting [3]).

With `Cn1c(C(=O)c2cn(CCCc3ccc(O[C@H]4CCCNCC4)cc3)c3ccccc23)cc2sccc21` (stereo in doubt) [Compound 25, [1-[3-[4-(azepan-4-yloxy)phenyl]propyl]indol-3-yl]-(4-methylthieno[3,2-b]pyrrol-5-yl)methanone hydrochloride], the IC50 in experiment [2] (setting [3]) is below 0.5 µM.

For `CCn1c(C(=O)c2cn(CCCc3ccc(OC[C@@H]4CCNC4)cc3)c3ccccc23)cc2sccc21` (stereo in doubt) [Compound 28, (4-ethylthieno[3,2-b]pyrrol-5-yl)-[1-[3-[4-(pyrrolidin-3-ylmethoxy)phenyl]propyl]indol-3-yl]methanone hydrochloride], the half-inhibitory concentration (IC50) in experiment [2] (setting [3]) is below 0.5 µM.

As for `Cn1c(C(=O)c2cn(CCCc3ccc(OC[C@@H]4CCNC4)cc3)c3ccccc23)cc2ccsc21` (stereo in doubt) [Compound 29, (6-methylthieno[2,3-b]pyrrol-5-yl)-[1-[3-[4-(pyrrolidin-3-ylmethoxy)phenyl]propyl]indol-3-yl]methanone], in experiment [2] (setting [3]), the IC50 was below 0.5 µM.

Take `Cn1c(C(=O)c2c[nH]c3ccccc23)cc2sccc21` [Compound 1, 1H-indol-3-yl-(4-methylthieno[3,2-b]pyrrol-5-yl)methanone]: in experiment [2] (setting [3]), the IC50 is below 50 µM.

Turning to `Cc1ccc2[nH]cc(C(=O)c3cc4sccc4n3C)c2c1` [Compound 2, (5-methyl-1H-indol-3-yl)-(4-methylthieno[3,2-b]pyrrol-5-yl)methanone], the IC50 in experiment [2] (setting [3]) is below 50 µM.

Take `CCn1c(C(=O)c2c[nH]c3ccccc23)cc2sccc21` [Compound 5, (4-ethylthieno[3,2-b]pyrrol-5-yl)-(1H-indol-3-yl)methanone]: the IC50 in experiment [2] (setting [3]) was below 50 µM.

Consider `Cn1c(C(=O)c2c[nH]c3ccccc23)cc2ccsc21` [Compound 6, 1H-indol-3-yl-(6-methylthieno[2,3-b]pyrrol-5-yl)methanone], for which the 50% inhibitory concentration (IC50) in experiment [2] (setting [3]) is below 50 µM.

Regarding `COCCn1cc(C(=O)c2cc3sccc3n2C)c2ccccc21` [Compound 8, [1-(2-Methoxyethyl)indol-3-yl]-(4-methylthieno[3,2-b]pyrrol-5-yl)methanone], the half-maximal inhibitory concentration (IC50) in experiment [2] was below 50 µM.

Turning to `Cn1c(C(=O)c2cn(CCOc3ccccc3OCC3CCNC3)c3ccccc23)cc2sccc21` (stereo not shown) [Compound 11, (4-Methylthieno[3,2-b]pyrrol-5-yl)-[1-[2-[2-(pyrrolidin-3-ylmethoxy)phenoxy]ethyl]indol-3-yl]methanone hydrochloride], the IC50 is below 10 µM with human leukemia NB4 cells, below 10 µM in experiment [1] and below 5 µM in experiment [2] (setting [3]).

On to `Cn1c(C(=O)c2cn(CCOc3cccc(OCC4CCNC4)c3)c3ccccc23)cc2sccc21` (stereo not shown) [Compound 12, (4-methylthieno[3,2-b]pyrrol-5-yl)-[1-[2-[3-(pyrrolidin-3-ylmethoxy)phenoxy]ethyl]indol-3-yl]methanone], for which, in experiment [2] (setting [3]), the IC50 was below 0.5 µM.

Consider `Cn1c(C(=O)c2cn(CCOc3cccc(OC[C@H]4CCNC4)c3)c3ccccc23)cc2sccc21` [Compound 13, (4-methylthieno[3,2-b]pyrrol-5-yl)-[1-[2-[3-[[(3S)-pyrrolidin-3-yl]methoxy]phenoxy]ethyl]indol-3-yl]methanone hydrochloride], for which the figures for the IC50 (in the experiment with human leukemia NB4 cells; in experiment [1]; in experiment [2] (setting [3])) were below 10 µM, below 10 µM and below 0.5 µM, respectively.

Take `Cn1c(C(=O)c2cn(CCOc3cccc(OC[C@@H]4CCNC4)c3)c3ccccc23)cc2sccc21` [Compound 14, (4-methylthieno[3,2-b]pyrrol-5-yl)-[1-[2-[3-[[(3R)-pyrrolidin-3-yl]methoxy]phenoxy]ethyl]indol-3-yl]methanone hydrochloride]: the IC50 in the experiment with human leukemia NB4 cells is below 10 µM; in experiment [1], below 10 µM; in experiment [2] (setting [3]) it was below 0.5 µM.

With `Cn1c(C(=O)c2cn(CCOc3cccc(OC4CCNCC4)c3)c3ccccc23)cc2sccc21` [Compound 16, (4-methylthieno[3,2-b]pyrrol-5-yl)-[1-[2-[3-(4-piperidyloxy)phenoxy]ethyl]indol-3-yl]methanone hydrochloride], the half-inhibitory concentration (IC50) was below 10 µM in the experiment on human leukemia NB4 cells, below 10 µM in experiment [1] and below 0.5 µM in experiment [2] (setting [3]).

For `Cn1c(C(=O)c2cn(CCCc3ccc(OCC4CCNCC4)cc3)c3ccccc23)cc2sccc21` [Compound 23, (4-methylthieno[3,2-b]pyrrol-5-yl)-[1-[3-[4-(4-piperidylmethoxy)phenyl]propyl]indol-3-yl]methanone hydrochloride], the IC50 with human leukemia NB4 cells was below 10 µM; in experiment [2] (setting [3]) it was below 0.5 µM.

Turning to `Cn1c(C(=O)c2cn(CCCc3ccc(OC4CCNCC4)cc3)c3ccccc23)cc2sccc21` [Compound 24, (4-methylthieno[3,2-b]pyrrol-5-yl)-[1-[3-[4-(4-piperidyloxy)phenyl]propyl]indol-3-yl]methanone hydrochloride], the figures for the half-inhibitory concentration (IC50) (in the experiment on human leukemia NB4 cells; in experiment [2] (setting [3])) were below 10 µM and below 0.5 µM, respectively.

Regarding `Cn1c(C(=O)c2cn(CCCc3ccc(OCC4CCNCC4)c(OCC4CCNCC4)c3)c3ccccc23)cc2sccc21` [Compound 26, [1-[3-[3,4-bis(4-piperidylmethoxy)phenyl]propyl]indol-3-yl]-(4-methylthieno[3,2-b]pyrrol-5-yl)methanone], the IC50 in experiment [2] (setting [3]) is below 0.5 µM.

`CCn1c(C(=O)c2cn(CCCc3ccc(OC4CCNCC4)cc3)c3ccccc23)cc2sccc21` [Compound 27, (4-ethylthieno[3,2-b]pyrrol-5-yl)-[1-[3-[4-(4-piperidyloxy)phenyl]propyl]indol-3-yl]methanone hydrochloride]: the IC50 in experiment [2] (setting [3]) was below 0.5 µM.

As for `Cn1c(C(=O)c2cn(CCCc3ccc(OC4CCNCC4)cc3)c3ccccc23)cc2ccsc21` [Compound 30, (6-methylthieno[2,3-b]pyrrol-5-yl)-[1-[3-[4-(4-piperidyloxy)phenyl]propyl]indol-3-yl]methanone], the half-inhibitory concentration (IC50) in experiment [2] (setting [3]) is below 0.5 µM.
